Assay results: US4515708A, “Corrosion inhibitors” (Exxon Research & Engineering Co., priority 1982, dated 1985)
Where two headings read alike, the source gives them in different places.

Legend:
[1] = Emulsion Test (3 wt% brine / heptane); format: physicochemical; design: Emulsion thickness after 30 mins: unit not given here; details: for Time to break emulsion: 1 ml of 35 wt% IPA solution, 50 ml 3 wt% brine, 50 ml heptane; for Appearance after 30 mins, hydrocarbon: hydrocarbon layer; for Appearance after 30 mins, hydrocarbon / Appearance after 30 mins, water / Emulsion thickness after 30 mins: 50 ml 3 wt% brine/50 ml heptane; for Appearance after 30 mins, water: water layer
Description: 1 ml of the solutions used for Test A was shaken with 50 ml of 3 wt% brine and 50 ml of heptane for 1 minute in a 150 ml bottle. The emulsion was observed, and the time noted for the emulsion to break and form a clean interface with clear liquid layers. If at 30 minutes this had not occurred, the appearance was recorded together with the thickness of any persisting emulsion.

[2] = Corrosion Test 1 (dynamic wheel test; 3 wt% brine/Mentor 28; CO2 + H2S); details: 24 h, 70° C.
Description: (§1) For each compound three mild steel coupons (approximately 100 mm×12 mm×1.5 mm) were tested at each concentration. Each was contacted in a 250 ml bottle with 200 ml of a test fluid either saturated with a carbon dioxide at 20° C. or containing 100 ppm hydrogen sulphide or having both CO2 and H2 S present in those amounts. The test fluid was treated with a 30% aqueous solution of the compound under test at 2, 10, 50 and 250 ppm except where indicated to the contrary. The coupon was subjected to a dynamic wheel test in which the bottle was mounted radially on the periphery of 650 mm diameter wheel which was rotated at about 40 rpm for 24 hours at 70° C. The weight loss was obtained, and also measured in a control experiment where no inhibitor was present. From this the % protection was calculated as % reduction in weight loss.
Test fluid: 100 ml 3 wt% brine/100 ml Mentor 28 (Mentor®28 is a depolarised kerosene available from Exxon Chemical Company)
(§2) Corrosives: Saturated CO2 +100 ppm H2 S

[3] = Film persistency corrosion test; details: CO2 + H2S, 24 h, 70° C.
Description: […] A test fluid made up of equal proportions of 3 wt% brine and Mentor 28 was used, saturated with CO2 and containing 100 ppm H2 S as corrosives. Coupons were used as described for the previous corrosion test. A coupon was first immersed in test fluid containing corrosives and the inhibitor under test for 1 hour, then rinsed for 1 hour in a similar test fluid containing no inhibitor and finally transferred to a further test fluid again containing no inhibitor in which the dynamic wheel test was carried out at 70° C. for 24 hours.

[4] = Corrosion Test 2 (dynamic wheel test; 3 wt% brine; CO2 + H2S); details: 24 h, 70° C.
Description: as §1
Test Fluid: 200 ml 3 wt% brine
as §2

[5] = Corrosion Test 4 (dynamic wheel test; 3 wt% brine + Mentor 28; H2S); details: 24 h, 70° C.
Description: as §1
(§3) Test fluid: 100 ml 3 wt% brine+100 ml Mentor 28
Corrosives: 100 ppm H2 S (prior nitrogen purge)

[6] = Corrosion Test 3 (dynamic wheel test; 3 wt% brine + Mentor 28; CO2 only); details: 24 h, 70° C.
Description: as §1, §3
Corrosives: Saturated CO2 only

[7] = Solubility Test (35 wt% solution in isopropylalcohol shaken with water, brine or heptane); format: physicochemical
Description: The active material under test was made up into a 35 wt% solution in isopropylalcohol (IPA). 0.3 ml of this solution was shaken with 10 ml of each of the liquids in which solubility is to be tested: water, 5 wt% NaCl solution (brine) and heptane. The mixture was observed after 30 minutes and 24 hours.

[8] = Corrosion inhibition tests, constant concentration conditions (overall)
Description: as §1

[9] = 0.3 ml of 35 wt% IPA solution in 10 ml heptane, 30 minutes and 24 hours
[10] = 0.3 ml of 35 wt% IPA solution in 10 ml water, observed after 30 minutes and 24 hours

Structure (SMILES)	Time to break emulsion [1]	Appearance after 30 mins, hydrocarbon [1]	Appearance after 30 mins, water [1]	% Protection ([2]; 2 ppm, 30% solution)	% Protection ([2]; 10 ppm, 30% solution)	% Protection ([2]; 50 ppm, 30% solution)	% Protection ([2]; 250 ppm, 30% solution)	% Protection ([3]; 500 ppm)	% Protection ([3]; 1000 ppm)	% Protection ([3]; 5000 ppm)	% Protection ([4]; 2 ppm)	% Protection ([4]; 10 ppm)	% Protection ([4]; 50 ppm)	% Protection ([4]; 250 ppm)	% Protection ([5]; 2 ppm)	% Protection ([5]; 10 ppm)	% Protection ([5]; 50 ppm)	% Protection ([5]; 250 ppm)	% Protection ([6]; 2 ppm)	% Protection ([6]; 10 ppm)	also measured
CCCCCCCCCCCCNCCc1ccccn1 [Example 4]	> 30 min	hazy	hazy	21%	73%	93%	94%	14%	14%	14%	24%	94%	95%	96%	20%	42%	50%	66%	0%	0%	% Protection ([6]; 50 ppm): 7%; % Protection ([6]; 250 ppm): 61%; SOLUBILITY IN: Heptane [7, 9]: S; SOLUBILITY IN: Water [7, 10]: S
c1ccc(CNCCc2ccccn2)cc1 [Example 8]	> 30 min	clear	hazy	21%	72%	81%	81%	19%	22%	24%	37%	69%	75%	85%	8%	12%	40%	55%	13%	32%	% Protection ([2]; 2 ppm, * active material added as undiluted compound): 46%; % Protection ([2]; 10 ppm, * active material added as undiluted compound): 53%; % Protection ([2]; 50 ppm, * active material added as undiluted compound): 88%; % Protection ([2]; 250 ppm, * active material added as undiluted compound): 97%; % Protection ([6]; 50 ppm): 34%; % Protection ([6]; 250 ppm): 37%; SOLUBILITY IN: Heptane [7, 9]: S; SOLUBILITY IN: Water [7, 10]: S
c1ccc(CN(CCc2ccccn2)CCc2ccccn2)cc1 [Example 20]	1 min	clear	clear	24%	25%	63%	81%	–	–	–	51%	63%	75%	91%	–	–	–	–	–	–	performance of 2:1 derivatives compared with 1:1 derivatives [8]: tended to perform less well than 1:1 derivatives; SOLUBILITY IN: Heptane [7, 9]: S; SOLUBILITY IN: Water [7, 10]: S
CCCCCCNCCc1ccncc1 [Example 22]	1 min	clear	clear	41%	67%	81%	87%	19%	20%	23%	11%	9%	41%	74%	8%	50%	67%	67%	9%	5%	% Protection ([6]; 50 ppm): 13%; % Protection ([6]; 250 ppm): 7%; SOLUBILITY IN: Brine [7]: S; SOLUBILITY IN: Heptane [7]: S; SOLUBILITY IN: Water [7]: S
CCCCCCCCCCCCNCCc1ccncc1 [Example 25]	> 30 min	hazy	hazy	28%	53%	88%	96%	17%	15%	20%	5%	44%	79%	94%	11%	17%	57%	78%	10%	6%	Emulsion thickness after 30 mins [1]: 0.2; % Protection ([6]; 50 ppm): 21%; % Protection ([6]; 250 ppm): 27%; SOLUBILITY IN: Heptane [7, 9]: S; SOLUBILITY IN: Water [7, 10]: S
CCCCCCCCCCCCCCCCCCNCCc1ccncc1 [Example 28]	> 30 min	hazy	clear	8%	23%	48%	87%	16%	16%	23%	11%	94%	96%	95%	2%	3%	49%	56%	8%	12%	Emulsion thickness after 30 mins [1]: 4.0; % Protection ([6]; 250 ppm): 9%; SOLUBILITY IN: Water [7, 10]: S
CCCCCCN(CCc1ccncc1)CCc1ccncc1 [Example 38]	1 min	clear	clear	2%	64%	79%	80%	–	–	–	–	–	–	–	–	–	–	–	–	–	performance of 2:1 derivatives compared with 1:1 derivatives [8]: tended to perform less well than 1:1 derivatives
